Source: the supplement of paper PMC11061612

Legend:
Assay in all cases: combination Emax (second highest fraction inhibited in the dose matrix, 72 h); higher = more inhibition; extreme values may be limits of the assay
[1] = test system: Caov-4 (Ovarian Carcinoma)
Outline: (§1)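 After 24 hours at 37°C and 5% CO2 in 1536-well plates, cells in DMEM/F12 or RPMI plus 10% FBS received two-drug dose matrices for 72 hours. Viability came from CellTiter-Glo 2.0 luminescence and was scaled as inhibition, anchored at 0 by vehicle wells and at 1 by blank wells. Combination Emax is taken as the second-highest inhibition in the matrix, and Bliss excess as the observed combination effect less EA + EB − EA·EB, with EA and EB the single-agent effects.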

[2] = test system: ACHN (Kidney Carcinoma)
Outline: as §1

[3] = test system: LU-65 (Non-Small Cell Lung Carcinoma)
Outline: as §1

[4] = test system: MIA-PaCa-2 (Pancreatic Carcinoma)
Outline: as §1

[5] = test system: KARPAS-299 (T-Cell Non-Hodgkin's Lymphoma)
Outline: as §1

[6] = test system: HGC-27 (Gastric Carcinoma)
Outline: as §1

[7] = test system: HSC-4 (Oral Cavity Carcinoma)
Outline: as §1

[8] = test system: Ca9-22 (Head and Neck Carcinoma)
Outline: as §1

[9] = test system: PANC-04-03 (Pancreatic Carcinoma)
Outline: as §1

[10] = test system: NCI-H1915 (Non-Small Cell Lung Carcinoma)
Outline: as §1

[11] = test system: NUGC-3 (Gastric Carcinoma)
Outline: as §1

[12] = test system: NEC8 (Other Solid Carcinomas)
Outline: as §1

[13] = test system: VA-ES-BJ (Other Solid Carcinomas)
Outline: as §1

[14] = test system: HOP-62 (Lung Adenocarcinoma)
Outline: as §1

[15] = test system: TGW (Neuroblastoma)
Outline: as §1

[16] = test system: EW-24 (Ewing's Sarcoma)
Outline: as §1

[17] = test system: PWR-1E (Non-Cancerous)
Outline: as §1

[18] = test system: YH-13 (Glioblastoma)
Outline: as §1

[19] = test system: KYSE-450 (Esophageal Squamous Cell Carcinoma)
Outline: as §1

[20] = test system: RF-48 (B-Cell Non-Hodgkin's Lymphoma)
Outline: as §1

SMILES	combination Emax [1]	combination Emax [2]	combination Emax [3]	combination Emax [4]	combination Emax [5]	combination Emax [6]	combination Emax [7]	combination Emax [8]	combination Emax [9]	combination Emax [10]	combination Emax [11]	combination Emax [12]	combination Emax [13]	combination Emax [14]	combination Emax [15]	combination Emax [16]	combination Emax [17]	combination Emax [18]	combination Emax [19]	combination Emax [20]
CC1(C)CCC(CN2CCN(c3ccc(C(=O)NS(=O)(=O)c4ccc(NCC5CCOCC5)c([N+](=O)[O-])c4)c(Oc4cnc5[nH]ccc5c4)c3)CC2)=C(c2ccc(Cl)cc2)C1 [Venetoclax] + Cc1cc2ncnn2cc1Nc1ncc2c(n1)n(C1CCOCC1)c(=O)n2C [AZD7648] (first compound max 1 µM, 7x7, partner max 10 µM)	0.263	0.725	0.378	0.269	0.837	0.485	0.11	0.128	0.286	0.641	0.409	0.205	0.233	0.172	0.393	0.38	0.164	0.3	0.14	0.321
CC1(C)CCC(CN2CCN(c3ccc(C(=O)NS(=O)(=O)c4ccc(NCC5CCOCC5)c([N+](=O)[O-])c4)c(Oc4cnc5[nH]ccc5c4)c3)CC2)=C(c2ccc(Cl)cc2)C1 [Venetoclax] + Cn1cnc2c(F)c(Nc3ccc(Br)cc3Cl)c(C(=O)NOCCO)cc21 [Selumetinib] (first compound max 1 µM, 7x7, partner max 3 µM)	0.364	0.688	0.538	0.403	0.812	0.142	0.243	0.222	0.354	0.423	0.392	0.104	0.123	0.435	0.337	0.154	0.0808	0.181	0.109	0.286
